Experiment [1] deals with Spiroplasma citri. As to conditions: cited from earlier work; for MIC: spiroplasma MIC from literature; for MIC concentration: S. citri, ref Béven et al. (1997). The text has this:
Table 7 Aggregation values of AMPs, predicted AMPs, and predicted NOAMPs. | column: MIC; Lab assay || Figure 6 Charge density analysis of predicted antimicrobial peptides (AMPs) tested in minimum inhibitory concentration (MIC) assays. […] The secondary structure of each AMP is indicated at the bottom of the respective graph. […] Intriguingly, the LK peptides had higher aggregation propensities (in the high 40s and 50s), while the peptides in the 1997 study had slightly positive (5.7, 1.3) and negative (−1.3) aggregation scores when input into AGGRESCAN. The positive control, Mel ...

Experiment [2] concerns Spiroplasma citri strain R8A2. The note with it: for activity against Spiroplasma citri in MIC assay (Positive/Negative, figure heading): Figures 5 and 6, positive = high activity, negative = no activity in MIC assay; for MIC: S. citri R8A2, LD8A3 medium + fetal bovine serum, phenol red, OD560, 48 h, triplicate, Resistant = ineffective.
Where [3] appears, read: ref Bevin2002 (Béven et al., 2003).
The mark [4] stands for this setting: ref Bevin1997 (Béven et al., 1997).

These results are taken from article PMC10955071, “AGRAMP: machine learning models for predicting antimicrobial peptides against phytopathogenic bacteria” (Frontiers in Microbiology, 2024).

Where two headings read alike, the source gives them in different places. Ends that are not written are not given here.

Consider “KLLKLLLKLLLKLLK [LK15_3.6, LK peptide (leucine/lysine copolymer) from Béven et al., 2003]”, for which, in experiment [1] (setting [3]), the MIC (in general, the least concentration at which growth counts as inhibited) was 6.25 µM.
Consider “KLLKLLLKLLLKLWK [LK15_W14_3.6, LK peptide (leucine/lysine copolymer) from Béven et al., 2003]”, for which, in experiment [1] (setting [3]), the MIC was 6.25 µM.
Consider MAQSKRYKARLVAKRIHAVKKY [G221], for which, in experiment [2], the “activity against Spiroplasma citri in MIC assay (Positive/Negative, figure heading)” value was “Negative” and the MIC entry is “Resistant”.
Take MARKAISKVIVGTRRKKKK [G66]: the MIC entry in experiment [2] is recorded as “Resistant”.
The same measure, in the same setting: the value for MCRRKGGLIGRAPPCRGRLAC [G9994] was “Resistant”.
Turning to MERRRLAAKLANKLVRIGWIG [I5196], the MIC result in experiment [2] is recorded as “Resistant”.
As for MFLLRRILKKLRTIFIQ [I3435], the MIC in experiment [2] is 50 mg/L. Further, the “SpiroC MIC (48hrs)” value in experiment [2] (Set1, tested at 50, 25, 12.5 μg/mL, OD560, triplicate) came out at 50 mg/L.
In the case of MGFLLKTLSHIRRVIRLII [G389], the “MIC (48hrs) Resistant (R)” value in experiment [2] turned out to be 50 mg/L.
Consider “MGLGLHLLLAAALQGAKKKRKV [P2, synthetic peptide from Béven et al., 1997]”, for which the MIC concentration in experiment [1] was 100 µM. Moreover, the MIC in experiment [1] (setting [4]) is 100 µM.
With “MGLGLHLLVLAAALQGAKKKRKV [P3, synthetic peptide from Béven et al., 1997]”, the MIC concentration in experiment [1] is 100 µM. In addition, in experiment [1] (setting [4]), the MIC is 100 µM.
On to “MGLGLHLLVLAAALQGAWSQPKKKRKV [P1, synthetic peptide from Béven et al., 1997]”, for which the MIC concentration in experiment [1] was 100 µM. Further, the MIC in experiment [1] (setting [4]) is 100 µM.
As for MIDNKIGLVVKWLRSK [I3775], in experiment [2], the minimum inhibitory concentration (MIC) result is on record as “Resistant”.
The same measure, in the same setting: the value for MILKRVFRMKNKKASV [G10159] was “Resistant”.
On to MILRLPHLINCTTTGLISKITSYLG [I4992], for which, in experiment [2], the “activity against Spiroplasma citri in MIC assay (Positive/Negative, figure heading)” value is reported as “Negative” and the MIC entry is “Resistant”.
In the case of MILSVLKIFGVFRKRSRGN [I3440], the “SpiroC MIC (48hrs)” value in experiment [2] was determined as 25 mg/L.
Take MITGRQKALKFIKKKVGGIQ [G196]: the MIC entry in experiment [2] is recorded as “Resistant”.
Consider MIVRIAIRRFLKGKRQIVKI [G33], for which the “MIC (48hrs) Resistant (R)” value in experiment [2] worked out at 25 mg/L.
Regarding MKSIKIKIKRLNSKNKKILILIFI [I970], the “SpiroC MIC (48hrs)” value in experiment [2] came out at 25 mg/L.
Consider MLIMRKIKKKKRKNRHI [G54], for which the MIC entry in experiment [2] is given as “Resistant”.
Consider MLKCHLVGFVRRLIN [I2572], for which, in experiment [2], the “SpiroC MIC (48hrs)” value turned out to be 25 mg/L.
As for MLLQRLIFKPIRIIWHT [I3441], in experiment [2], the “SpiroC MIC (48hrs)” value was found to be 25 mg/L.
For the substance MLNLKLIRLLRHRFAI [G15], the “MIC (48hrs) Resistant (R)” value in experiment [2] worked out at 50 mg/L.
MMKKVIKLQKMIALGKIVKRFSLY [I4455]: the “SpiroC MIC (48hrs)” value in experiment [2] turned out to be 12.5 mg/L.
For MSRKLRKGKRQLKSPRFGKIVI [I2769], the MIC entry in experiment [2] was “Resistant”.
Take MVSHLFCFKFIRNLRFKKIR [G19]: the “MIC (48hrs) Resistant (R)” value in experiment [2] came to 50 mg/L.
Regarding “Mellitin: positive control peptide in Béven et al., 1997”, the MIC in experiment [1] (setting [4]) was 0.39 to .78 µM.
